Data as given in ChEMBL document CHEMBL1201862, “PubChem BioAssay data set” (2004).
The source made the active and inactive calls.

What was measured:
[1] = SAR analysis of small molecule activators of Apaf-1 using a LZ-Caspase-9/Caspase-3 Fluorescent Selectivity assay - Set 2.; assay type: functional; details: read-out: EC50_Mean
[2] = biological target: T1, Apoptotic protease-activating factor 1 (Homo sapiens, UniProt O14727); test: SAR analysis of small molecule Activators of Apaf-1 in a Fluorescent assay - set 2.; assay type: functional; details: read-out: EC50_Mean
T1 sequence (O14727 whole entry): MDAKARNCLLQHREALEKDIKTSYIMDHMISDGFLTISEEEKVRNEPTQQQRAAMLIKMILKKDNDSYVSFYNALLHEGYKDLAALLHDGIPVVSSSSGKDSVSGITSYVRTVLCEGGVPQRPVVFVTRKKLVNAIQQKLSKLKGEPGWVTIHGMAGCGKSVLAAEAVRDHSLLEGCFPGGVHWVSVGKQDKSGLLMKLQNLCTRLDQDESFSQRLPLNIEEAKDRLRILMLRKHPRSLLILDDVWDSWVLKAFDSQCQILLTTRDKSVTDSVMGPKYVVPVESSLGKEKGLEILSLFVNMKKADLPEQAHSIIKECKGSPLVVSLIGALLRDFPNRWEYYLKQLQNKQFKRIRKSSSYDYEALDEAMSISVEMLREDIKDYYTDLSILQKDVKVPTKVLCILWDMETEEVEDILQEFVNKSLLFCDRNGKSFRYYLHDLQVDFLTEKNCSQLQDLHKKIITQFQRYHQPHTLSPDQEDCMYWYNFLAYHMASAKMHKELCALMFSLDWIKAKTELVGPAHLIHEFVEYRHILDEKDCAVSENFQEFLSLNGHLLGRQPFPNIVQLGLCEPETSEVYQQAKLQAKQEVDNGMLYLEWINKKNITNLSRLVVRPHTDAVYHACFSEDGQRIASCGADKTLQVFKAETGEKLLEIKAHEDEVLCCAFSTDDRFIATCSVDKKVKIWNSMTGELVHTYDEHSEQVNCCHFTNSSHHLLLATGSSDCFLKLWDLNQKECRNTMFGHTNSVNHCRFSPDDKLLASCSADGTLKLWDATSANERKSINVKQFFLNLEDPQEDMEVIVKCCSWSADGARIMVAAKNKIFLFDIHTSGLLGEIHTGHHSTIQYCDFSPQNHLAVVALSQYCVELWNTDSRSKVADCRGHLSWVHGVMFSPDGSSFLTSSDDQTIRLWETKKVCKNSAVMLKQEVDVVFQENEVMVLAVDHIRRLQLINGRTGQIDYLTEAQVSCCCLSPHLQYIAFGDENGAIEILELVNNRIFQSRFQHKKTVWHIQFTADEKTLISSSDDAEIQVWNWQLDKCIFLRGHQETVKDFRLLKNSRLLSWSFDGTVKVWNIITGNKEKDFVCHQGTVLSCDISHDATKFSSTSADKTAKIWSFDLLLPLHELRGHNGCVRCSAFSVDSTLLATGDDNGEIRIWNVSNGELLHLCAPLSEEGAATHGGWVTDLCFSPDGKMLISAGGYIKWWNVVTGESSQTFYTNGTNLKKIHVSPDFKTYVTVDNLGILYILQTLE

[3] = biological target: DNA dC->dU-editing enzyme APOBEC-3A (Homo sapiens, UniProt P31941); test: SAR analysis of small molecule inhibitors of APOBEC3A DNA Deaminase via a fluorescence-based single-stranded DNA deaminase assay - Set 2.; assay type: functional; details: read-out: IC50_Mean
[4] = biological target: DNA dC->dU-editing enzyme APOBEC-3G (Homo sapiens, UniProt Q9HC16); test: SAR analysis of small molecule inhibitors of APOBEC3G DNA Deaminase via a fluorescence-based single-stranded DNA deaminase assay - Set 2.; assay type: functional; details: read-out: IC50_Mean
DNA dC->dU-editing enzyme APOBEC-3G, sequence (Q9HC16 whole entry): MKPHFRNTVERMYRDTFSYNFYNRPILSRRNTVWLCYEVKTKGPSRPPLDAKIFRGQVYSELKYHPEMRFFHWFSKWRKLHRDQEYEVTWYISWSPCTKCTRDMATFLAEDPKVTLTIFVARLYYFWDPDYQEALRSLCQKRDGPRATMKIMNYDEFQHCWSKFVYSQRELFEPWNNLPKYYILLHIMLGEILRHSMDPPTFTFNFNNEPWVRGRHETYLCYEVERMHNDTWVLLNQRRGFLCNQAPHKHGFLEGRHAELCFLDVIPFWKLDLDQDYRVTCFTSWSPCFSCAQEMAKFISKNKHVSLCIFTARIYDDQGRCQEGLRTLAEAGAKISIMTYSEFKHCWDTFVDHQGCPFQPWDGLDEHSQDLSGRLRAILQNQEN

[5] = biological target: Glycogen synthase kinase-3 beta (Homo sapiens, UniProt P49841); test: inhibition of human GSK3B activity – biochemical, microfluidics, dry powder samples, set 2, dose response (AID 623989); assay type: functional
[6] = biological target: Glycogen synthase kinase-3 alpha (Homo sapiens, UniProt P49840); test: GSK3A enzyme blockers, homolog specificity check – biochemical, microfluidics, dry powder samples, set 2, selectivity assay for GSK3beta inhibitor project, dose response (AID 623978); assay type: functional
Glycogen synthase kinase-3 alpha, sequence (P49840 whole entry): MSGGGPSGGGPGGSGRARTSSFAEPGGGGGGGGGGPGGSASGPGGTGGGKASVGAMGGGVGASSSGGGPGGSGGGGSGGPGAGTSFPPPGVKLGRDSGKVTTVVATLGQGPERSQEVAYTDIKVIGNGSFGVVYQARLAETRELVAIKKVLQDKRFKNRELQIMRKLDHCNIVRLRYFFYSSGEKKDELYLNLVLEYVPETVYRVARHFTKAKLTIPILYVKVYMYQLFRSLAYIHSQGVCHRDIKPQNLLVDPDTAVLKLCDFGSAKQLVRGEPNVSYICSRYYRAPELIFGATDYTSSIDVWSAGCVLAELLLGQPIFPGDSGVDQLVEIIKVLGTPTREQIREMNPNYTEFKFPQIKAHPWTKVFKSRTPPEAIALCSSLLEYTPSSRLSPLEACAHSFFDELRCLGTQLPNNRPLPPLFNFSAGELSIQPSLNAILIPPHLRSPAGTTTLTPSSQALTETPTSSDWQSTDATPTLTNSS

[7] = Luminescence Cell-Based Dose Confirmation HTS to Identify Activators of 5'UTR Stem-Loop Driven Alpha-Synuclein mRNA Translation in H4 Neuroglioblastoma Cells. [Related pubchem assays: 1829 (Project Summary), 1814 (Primary HTS)]; assay type: functional
[8] = biological target: T2, Polyadenylate-binding protein 1 (Homo sapiens, UniProt P11940); test: MLLE binding blockers, Cy5 peptide tracer – biochemical, fluorescence polarization, Cy5-PAM2 peptide, secondary, miRNA deadenylation inhibitor project, dose response (AID 602260); assay type: functional; details: read-out: IC50_Mean
T2 sequence (P11940 whole entry): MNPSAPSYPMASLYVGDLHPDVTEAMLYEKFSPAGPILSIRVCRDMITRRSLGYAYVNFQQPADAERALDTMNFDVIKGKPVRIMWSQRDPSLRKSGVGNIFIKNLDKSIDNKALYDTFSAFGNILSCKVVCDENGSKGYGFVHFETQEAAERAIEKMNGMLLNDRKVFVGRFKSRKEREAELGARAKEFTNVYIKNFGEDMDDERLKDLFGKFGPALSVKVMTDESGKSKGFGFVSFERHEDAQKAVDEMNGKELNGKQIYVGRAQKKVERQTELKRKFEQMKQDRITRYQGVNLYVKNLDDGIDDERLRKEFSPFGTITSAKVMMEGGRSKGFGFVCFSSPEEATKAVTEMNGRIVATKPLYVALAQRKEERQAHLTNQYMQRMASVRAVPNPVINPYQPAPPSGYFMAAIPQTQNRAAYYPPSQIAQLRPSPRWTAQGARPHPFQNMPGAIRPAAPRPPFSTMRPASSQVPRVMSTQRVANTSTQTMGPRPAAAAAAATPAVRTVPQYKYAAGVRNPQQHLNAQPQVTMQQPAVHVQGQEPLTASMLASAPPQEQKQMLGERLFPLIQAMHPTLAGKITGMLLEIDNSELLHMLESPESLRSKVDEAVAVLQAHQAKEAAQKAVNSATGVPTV

Beta-galactosidase [9] = biological target: T3, Beta-galactosidase (Escherichia coli, UniProt Q8VNN2); test: PubChem AID 485352; assay type: functional
T3 sequence (Q8VNN2 whole entry): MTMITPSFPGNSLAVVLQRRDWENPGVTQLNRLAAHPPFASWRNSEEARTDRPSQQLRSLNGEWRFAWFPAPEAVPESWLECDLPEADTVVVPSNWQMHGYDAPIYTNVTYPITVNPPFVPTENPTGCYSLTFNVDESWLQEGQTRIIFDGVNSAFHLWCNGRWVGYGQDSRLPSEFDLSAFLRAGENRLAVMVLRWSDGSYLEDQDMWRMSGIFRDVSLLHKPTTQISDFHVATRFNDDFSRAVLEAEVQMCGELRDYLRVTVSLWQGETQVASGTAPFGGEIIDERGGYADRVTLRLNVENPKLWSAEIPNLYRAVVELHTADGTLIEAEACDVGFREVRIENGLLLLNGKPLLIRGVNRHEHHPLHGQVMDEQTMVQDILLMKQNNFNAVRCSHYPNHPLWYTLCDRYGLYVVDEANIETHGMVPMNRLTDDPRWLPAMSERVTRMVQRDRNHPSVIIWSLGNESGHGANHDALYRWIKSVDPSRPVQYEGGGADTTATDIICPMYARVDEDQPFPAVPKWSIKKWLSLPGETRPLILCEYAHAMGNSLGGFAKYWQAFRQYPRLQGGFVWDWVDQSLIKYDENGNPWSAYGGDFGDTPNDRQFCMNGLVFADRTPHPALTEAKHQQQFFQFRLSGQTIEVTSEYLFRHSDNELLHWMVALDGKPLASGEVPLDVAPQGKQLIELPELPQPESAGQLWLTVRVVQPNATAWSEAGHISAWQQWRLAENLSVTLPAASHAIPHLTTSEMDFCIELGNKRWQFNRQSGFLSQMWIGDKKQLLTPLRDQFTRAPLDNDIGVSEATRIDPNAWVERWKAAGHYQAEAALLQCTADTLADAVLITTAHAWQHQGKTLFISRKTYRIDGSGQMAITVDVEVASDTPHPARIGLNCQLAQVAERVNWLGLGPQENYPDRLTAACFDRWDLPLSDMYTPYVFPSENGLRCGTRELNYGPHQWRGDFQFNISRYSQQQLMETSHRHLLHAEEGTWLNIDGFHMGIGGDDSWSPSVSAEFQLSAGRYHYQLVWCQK

[10] = NIH-3T3 fibroblast cytotoxicity, dose response, cytotoxicity control, cell-based, fluorescence, Alamar Blue, secondary assay (AID 2327); assay type: functional;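 also: NIH-3T3 mouse fibroblasts cultured with fluconazole at 8 µg/mL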
[11] = biological target: T4, Kappa-type opioid receptor (Homo sapiens, UniProt P41145); assay type: functional
T4 sequence (P41145 whole entry): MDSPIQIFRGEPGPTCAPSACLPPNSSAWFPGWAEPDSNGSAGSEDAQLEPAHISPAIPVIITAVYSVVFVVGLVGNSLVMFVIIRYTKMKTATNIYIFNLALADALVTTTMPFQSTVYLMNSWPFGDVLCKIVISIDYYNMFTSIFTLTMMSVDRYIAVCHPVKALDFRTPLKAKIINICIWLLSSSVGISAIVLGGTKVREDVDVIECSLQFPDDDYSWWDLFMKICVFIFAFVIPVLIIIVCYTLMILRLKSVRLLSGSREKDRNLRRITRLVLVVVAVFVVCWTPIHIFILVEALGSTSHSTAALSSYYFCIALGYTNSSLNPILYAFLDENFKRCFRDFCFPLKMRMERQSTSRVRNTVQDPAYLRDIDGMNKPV

[12] = biological target: 72 kDa type IV collagenase (Homo sapiens, UniProt P08253); test: Dose Response validation of uHTS RPN11 inhibitor hits using a MMP-2 Fluorescence assay.; assay type: functional
72 kDa type IV collagenase, sequence (P08253 whole entry): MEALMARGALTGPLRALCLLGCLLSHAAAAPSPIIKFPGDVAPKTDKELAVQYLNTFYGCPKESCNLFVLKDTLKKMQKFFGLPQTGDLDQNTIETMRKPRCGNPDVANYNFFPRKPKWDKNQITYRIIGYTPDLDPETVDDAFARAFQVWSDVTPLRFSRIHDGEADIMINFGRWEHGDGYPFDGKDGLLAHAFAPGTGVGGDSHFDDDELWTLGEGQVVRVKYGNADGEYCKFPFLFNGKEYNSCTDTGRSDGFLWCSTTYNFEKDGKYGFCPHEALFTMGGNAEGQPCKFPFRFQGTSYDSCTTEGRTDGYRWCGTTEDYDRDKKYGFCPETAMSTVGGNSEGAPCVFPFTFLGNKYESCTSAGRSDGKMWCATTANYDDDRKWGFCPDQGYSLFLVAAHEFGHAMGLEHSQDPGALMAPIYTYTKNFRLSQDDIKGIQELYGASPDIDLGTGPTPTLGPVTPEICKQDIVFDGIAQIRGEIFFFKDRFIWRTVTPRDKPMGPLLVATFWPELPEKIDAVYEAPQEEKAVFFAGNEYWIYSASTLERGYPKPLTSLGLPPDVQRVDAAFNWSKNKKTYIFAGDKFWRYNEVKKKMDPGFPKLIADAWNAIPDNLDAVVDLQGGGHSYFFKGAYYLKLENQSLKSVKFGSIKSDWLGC

[13] = biological target: T4, Kappa-type opioid receptor; assay type: functional; remark: listed apart in the source
Mu-type opioid receptor = Mu-type opioid receptor (Homo sapiens, UniProt P35372); test: HTS Image-Based Screen for Agonists of the MOR Receptor. [Related pubchem assays (depositor defined):AID1777, AID1785, AID1786, AID2133]; assay type: functional;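 also: imaging of beta-arrestin GFP recruitment into spots after receptor activation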
[14] = non-specific 3'UTR reporter inhibition in Clone20-Shn3RL – cell-based, Renilla luciferase, cherry-picked, counter-screen for Shn3 inhibitor project, dose response (AID 624133); assay type: functional
[15] = biological target: T5, Delta-type opioid receptor (Homo sapiens, UniProt P41143); test: HTS Image-Based Screen for Antagonists of the DOR Receptor. [Related pubchem assays (depositor defined):AID1777, AID1785, AID1786, AID2133]; assay type: functional
T5 sequence (P41143 whole entry): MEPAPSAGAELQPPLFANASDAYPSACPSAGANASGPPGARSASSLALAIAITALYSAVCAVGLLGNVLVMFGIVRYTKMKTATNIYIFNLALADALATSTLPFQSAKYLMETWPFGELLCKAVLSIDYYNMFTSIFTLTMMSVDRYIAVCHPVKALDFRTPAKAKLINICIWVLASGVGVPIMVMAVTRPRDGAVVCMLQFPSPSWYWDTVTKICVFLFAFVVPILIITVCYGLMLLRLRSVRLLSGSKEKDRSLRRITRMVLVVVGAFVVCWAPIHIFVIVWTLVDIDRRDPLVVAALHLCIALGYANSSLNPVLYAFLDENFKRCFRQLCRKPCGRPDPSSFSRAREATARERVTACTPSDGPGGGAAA

Prothrombin = Prothrombin (Bos taurus, UniProt P00735); test: thrombin protease inhibitors – biochemical, fluorescence polarization, uHTS hits, dose response (AID 602369); assay type: functional
[16] = Luminescence Cell-Based Dose Response HTS to Identify Activators of Luciferase Translation or Activity in H4 […] Cells. [Related pubchem assays: 1829 (Project Summary), 1814 (Primary HTS)]; assay type: functional
BJ [17] = test: cells; assay type: functional, cell-based; details: Homo sapiens
H4 = test: Luminescence Cell-Based Dose Response HTS to Identify Activators of 5'UTR Stem-Loop Driven Prion Protein mRNA Translation in H4 Neuroglioblastoma Cells. [Related pubchem assays: 1829 (Project Summary), 1814 (Primary HTS)]; assay type: functional; details: Homo sapiens
BJ [18] = test: growth inhibition of engineered Ras-driven BJ cells – cell-based, alamar blue fluorescence, cherrypicked samples, dose response (AID 2631); assay type: functional; details: Homo sapiens;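 also: confirmatory dose-response assay in RAS-dependent BJ fibroblasts engineered with TERT, LT and ST, with cytotoxicity read by fluorescence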
Vero [19] = test: cells; assay type: functional; details: Chlorocebus sabaeus
BJ [20] = test: BJ-TERT fibroblast viability loss – cell-based, RAS-independent, luminescence, dose response (AID 1933); assay type: functional; details: Homo sapiens
Vero [21] = test: cells; assay type: functional, cell-based; details: Chlorocebus sabaeus
[22] = biological target: Type-1 angiotensin II receptor (Homo sapiens, UniProt P30556); test: antagonism of angiotensin II type 1 receptor – cell-based, uHTS hits, selectivity assay for APJ receptor antagonist project, dose response (AID 463214); assay type: functional;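 also: antagonist potency against angiotensin II stimulated AT1 response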
[23] = biological target: T2, Polyadenylate-binding protein 1; test: MLLE domain peptide-binding blockers, IC50 – biochemical, fluorescence polarization, FITC-PAM2 peptide, dose response (AID 602259); assay type: functional; details: read-out: IC50_Mean
[24] = DRD fibroblast viability loss – cell-based, non-viral oncogenic, luminescence, dose response (AID 1934); assay type: functional; details: Homo sapiens
[25] = reduction of Shn3 3'UTR-driven luciferase in osteoblasts – cell-based, Clone20 osteoblasts, firefly luciferase, cherry-picked, dose response (AID 624132); assay type: functional;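 also: firefly luciferase luminescence from reporter carrying the Shn3 3'UTR in osteoblasts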
[26] = biological target: 26S proteasome non-ATPase regulatory subunit 14 (Homo sapiens, UniProt O00487); test: inhibition of proteasome subunit RPN11 – biochemical, fluorescence polarization, uHTS hits, confirmation (AID 602368); assay type: functional
Beta-galactosidase [27] = biological target: T3, Beta-galactosidase; assay type: functional
[28] = Luminescence-based dose response cell-based high throughput screening assay for cytotoxic compounds using the IEC-6 intestinal epithelial cell line. [Related pubchem assays: 1858 (Summary AID.), 1825 (Counterscreen.), 1907 (Confirmation screen.)]; assay type: functional
BJ [29] = test: BJ-TERT-LT-ST fibroblast viability loss – cell-based, RAS-independent, luminescence, dose response (AID 1935); assay type: functional; details: Homo sapiens;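 also: BJ fibroblasts immortalized with TERT plus LT and ST oncogenes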
[30] = biological target: T5, Delta-type opioid receptor; test: HTS Image-Based Screen for Agonists of the DOR Receptor. [Related pubchem assays (depositor defined):AID1777, AID1786, AID2133]; assay type: functional
[31] = HEK-293T viability loss after treatment – luminescence, T-cell screen hits, cytotoxicity control for TCR NF-kB inhibitor project, dose response (AID 489026); assay type: functional, cell-based;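 also: cells exposed to compound about 14 hours before the viability readout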
[32] = biological target: Multidrug resistance protein CDR2 (Candida albicans (strain SC5314 / ATCC MYA-2876) (Yeast), UniProt P78595); test: inhibition of Nile Red efflux via Candida CDR2 – S. cerevisiae AD1-8u, singleplex, Cherry Pick1 hits, dose response (AID 588604); assay type: functional
[33] = biological target: Melanin-concentrating hormone receptor 1 (Homo sapiens, UniProt Q99705); test: Late-stage fluorescence-based counterscreen for antagonists of the G-protein coupled receptor 7 (GPR7): cell-based dose response assay to identify antagonists of the melanin-concentrating hormone receptor 1 (MCHR1) Set 6.; assay type: functional
[34] = biological target: T6, Neuropeptides B/W receptor type 1 (Homo sapiens, UniProt P48145); test: human NPBW1 receptor blockade, IC50 – cell-based, fluorescence, dose response, set 6, late-stage follow-up (AID 588583); assay type: functional
T6 sequence (P48145 whole entry): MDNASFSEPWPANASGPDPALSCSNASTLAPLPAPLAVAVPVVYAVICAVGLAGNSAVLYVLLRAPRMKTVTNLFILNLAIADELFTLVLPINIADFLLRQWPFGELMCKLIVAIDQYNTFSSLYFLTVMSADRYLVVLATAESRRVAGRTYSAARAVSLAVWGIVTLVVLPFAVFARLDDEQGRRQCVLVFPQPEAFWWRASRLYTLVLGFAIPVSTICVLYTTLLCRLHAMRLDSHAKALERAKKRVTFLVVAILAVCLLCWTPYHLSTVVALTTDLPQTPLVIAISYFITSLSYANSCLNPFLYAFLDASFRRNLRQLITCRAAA

[35] = biological target: Dual specificity tyrosine-phosphorylation-regulated kinase 1A (Homo sapiens, UniProt Q13627); assay type: functional;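 also: measured against DYRK1A as one member of a broad kinome profiling panel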
[36] = biological target: Serine/threonine-protein kinase pim-3 (Homo sapiens, UniProt Q86V86); assay type: functional;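 also: value obtained as one member of a broad kinase panel profiling effort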
[37] = biological target: Mitogen-activated protein kinase kinase kinase kinase 4 (Homo sapiens, UniProt O95819); assay type: functional
[38] = biological target: Dual specificity protein kinase CLK4 (Homo sapiens, UniProt Q9HAZ1); assay type: functional
[39] = biological target: Casein kinase I isoform delta (Homo sapiens, UniProt P48730); assay type: functional;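 also: measured as one member (CSNK1D) of a kinome panel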
Casein kinase I isoform delta, sequence (P48730 whole entry, canonical isoform): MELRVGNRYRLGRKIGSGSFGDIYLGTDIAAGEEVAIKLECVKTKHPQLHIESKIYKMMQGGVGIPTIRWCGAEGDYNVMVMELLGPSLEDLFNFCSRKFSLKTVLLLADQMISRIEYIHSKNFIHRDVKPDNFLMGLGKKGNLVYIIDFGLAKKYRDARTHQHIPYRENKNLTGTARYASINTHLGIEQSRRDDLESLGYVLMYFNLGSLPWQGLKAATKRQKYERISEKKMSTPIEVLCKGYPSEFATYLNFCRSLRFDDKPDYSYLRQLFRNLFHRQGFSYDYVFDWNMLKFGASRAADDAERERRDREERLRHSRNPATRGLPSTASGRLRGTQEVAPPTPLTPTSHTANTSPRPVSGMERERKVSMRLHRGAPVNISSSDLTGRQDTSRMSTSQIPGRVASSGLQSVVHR

[40] = biological target: Serine/threonine-protein kinase pim-1 (Homo sapiens, UniProt P11309); assay type: functional
Serine/threonine-protein kinase pim-1, sequence (P11309 whole entry): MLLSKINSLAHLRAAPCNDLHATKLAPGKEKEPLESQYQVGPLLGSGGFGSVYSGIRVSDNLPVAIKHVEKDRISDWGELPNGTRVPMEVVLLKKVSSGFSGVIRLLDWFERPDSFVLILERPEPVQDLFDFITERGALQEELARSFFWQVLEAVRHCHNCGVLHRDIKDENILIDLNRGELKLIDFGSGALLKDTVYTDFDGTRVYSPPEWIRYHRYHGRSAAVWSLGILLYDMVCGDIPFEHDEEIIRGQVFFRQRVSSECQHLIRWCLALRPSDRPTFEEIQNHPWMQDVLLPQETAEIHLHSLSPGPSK

[41] = biological target: Casein kinase II subunit alpha (Homo sapiens, UniProt P68400); assay type: functional

In the case of CC(CN1CCOCC1)C(=O)O (centres undefined), the EC50 [1] is reported as > 100 µM (inactive) and the EC50 [2] is reported as > 100 µM (inactive).
In the case of O=C(O)c1cc2ncccn2n1, the IC50 [3] is reported as 2.6 µM (active) and the IC50 [4] is reported as 1.73 µM (active).
In the case of Cc1cccc(OCC(=O)Nc2ccc3c(c2)C(=O)NC3=O)c1, the AC50 [5] is reported as 1.36 µM (active) and the AC50 [6] is reported as 8 µM (active).
With O=C(Sc1cccc2cccnc12)c1ccccc1Br the EC50 [7] was > 120 µM (not active), the IC50 [8] was > 66 µM (inactive) and the EC50 (Beta-galactosidase [9]) was > 40 µM (inactive). The EC50 [10] was 31.8 µM (active), the IC50 [11] was over 32 µM and the IC50 [12] was > 100 µM (inactive). For the same molecule, the IC50 [13] was 10.5 µM (active), the EC50 (Mu-type opioid receptor) was > 32 µM (inactive) and the AC50 [14] was 13.3 µM (active). The IC50 [15] was > 32 µM (inactive), the IC50 (Prothrombin) was > 100 µM (inactive) and the EC50 [16] was > 120 µM (not active). For the same molecule, the EC50 (BJ [17]) was > 150 µM (inconclusive), the EC50 (H4) was > 120 µM (not active) and the EC50 (BJ [18]) was 0.328 µM (active). For the same molecule, the CC50 (Vero [19]) was 9.91 µM (active), the EC50 (BJ [20]) was 12.7 µM (active) and the IC50 (Vero [21]) was > 25 µM (active). For the same molecule, the IC50 [22] was 3.51 µM (active), the IC50 [23] was > 66 µM (inactive) and the EC50 [24] was 2.48 µM (active). For the same molecule, the AC50 [25] was 0.383 µM (active), the IC50 [26] was 6.65 µM (active) and the EC50 (Beta-galactosidase [27]) was > 31.5 µM (inactive). For the same molecule, the IC50 [28] was 0.514 µM (active), the EC50 (BJ [29]) was 36.8 µM (active) and the EC50 [30] was > 32 µM (inactive). For the same molecule, the IC50 [31] was 57.8 µM (inactive).
In the case of O=C(Oc1ccc2c(=O)c(Oc3ccc4ccccc4c3)coc2c1)c1cncc(Br)c1, the EC50 [32] is reported as 22.2 µM (active).
With N#CC(c1ccc([N+](=O)[O-])cc1)c1c(Cl)cnn(Cc2cccc3ccccc23)c1=O (centres undefined) the IC50 [33] was 0.303 µM (active) and the IC50 [34] was 0.303 µM (active).
For O=c1oc2ccccc2c2[nH]c(-c3ccccc3)nc12, the Ki [35] was 1.58 µM (active), the Ki [36] was 1.58 µM (active) and the Ki [37] was 5.01 µM (active). The Ki [38] was 1.26 µM (active), the Ki [39] was 6.31 µM (active) and the Ki [40] was 1 µM (active). The Ki [41] was 2 µM (active).
